pEC50: −log10 of the molar value. Positions of bridges follow the written chain, without caps; N, C: chain ends. Non-standard residues stand in square brackets, D forms with d. Residues, ends and D or L forms follow the SMILES beside them. NMeW = CN[C@@H](Cc1c[nH]c2ccccc12)C(=O)O; d1Nal = N[C@H](Cc1cccc2ccccc12)C(=O)O; NMeH = CN[C@@H](Cc1c[nH]cn1)C(=O)O; 3Pal = N[C@@H](Cc1cccnc1)C(=O)O; Cit = NC(=O)NCCC[C@H](N)C(=O)O; Nle = CCCC[C@H](N)C(=O)O; Aib = CC(C)(N)C(=O)O
Legend:
Type in all cases: cell-based
human MC3R = target: T1, human MC3R (Homo sapiens, UniProt P41968); assay: split-luciferase cAMP sensor assay, agonist mode (measurement window 1), hMC3R; conditions: for pEC50: HEK-293 cells stably expressing hMC3R, read-out: MC3R cAMP EC50; for pEC50 / Emax: agonist mode; for MC4R selectivity vs MC3R: MC4R versus MC3R; for Emax: % maximal activation, read-out: MC3R cAMP % max activation
T1 construct: expressed in transfected cells; host or cells: HEK-293 cells stably expressing the GScAMP22F split-luciferase cAMP sensor (parent reporter line from Promega); MC3R clone generated in-house, G418 selection
T1 sequence (P41968 whole entry): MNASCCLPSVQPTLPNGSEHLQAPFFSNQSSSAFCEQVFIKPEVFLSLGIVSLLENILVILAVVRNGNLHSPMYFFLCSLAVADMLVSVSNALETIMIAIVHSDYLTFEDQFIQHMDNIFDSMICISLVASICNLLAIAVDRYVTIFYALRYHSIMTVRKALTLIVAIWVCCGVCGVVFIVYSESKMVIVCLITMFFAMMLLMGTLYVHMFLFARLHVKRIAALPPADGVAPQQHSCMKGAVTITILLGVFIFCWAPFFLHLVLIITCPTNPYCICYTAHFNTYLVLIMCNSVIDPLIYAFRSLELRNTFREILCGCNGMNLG
Summary of the method: (§1)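 EC50 values come from a four-parameter variable-slope fit of luminescence in measurement window 1, capturing direct peptide effects on receptor-expressing cells with a cAMP22f luciferase sensor. Cells were preloaded with 4% D-luciferin, serum-free medium; 20 μM forskolin normalized for cell number and transducer efficiency.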

human MC4R = target: T2, human MC4R (Homo sapiens, UniProt P32245); assay: split-luciferase cAMP sensor assay, agonist mode (measurement window 1), hMC4R; conditions: agonist mode; for Emax: % maximal activation, read-out: MC4R cAMP % max activation; for pEC50: HEK-293 cells stably expressing hMC4R, read-out: MC4R cAMP EC50
T2 construct: host or cells: HEK-293 cells stably expressing the GScAMP22F split-luciferase cAMP sensor and hMC4R, G418 selection
T2 sequence (P32245 whole entry): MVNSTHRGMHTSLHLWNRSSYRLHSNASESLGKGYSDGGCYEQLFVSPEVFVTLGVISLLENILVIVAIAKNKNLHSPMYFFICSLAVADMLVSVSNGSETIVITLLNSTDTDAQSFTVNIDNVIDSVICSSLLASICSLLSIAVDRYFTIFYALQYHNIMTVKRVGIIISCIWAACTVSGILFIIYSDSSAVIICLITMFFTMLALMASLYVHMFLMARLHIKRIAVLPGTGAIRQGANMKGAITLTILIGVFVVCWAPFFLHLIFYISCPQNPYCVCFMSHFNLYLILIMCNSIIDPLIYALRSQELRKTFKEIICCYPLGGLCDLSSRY
Summary of the method: as §1

human MC1R = target: T3, human MC1R (Homo sapiens, UniProt Q01726); assay: split-luciferase cAMP sensor assay, agonist mode, hMC1R; conditions: MC4R versus MC1R
T3 construct: expressed in transfected cells; host or cells: HEK-293 cells stably expressing hMC1R and the GScAMP22F cAMP sensor
T3 sequence (Q01726 whole entry): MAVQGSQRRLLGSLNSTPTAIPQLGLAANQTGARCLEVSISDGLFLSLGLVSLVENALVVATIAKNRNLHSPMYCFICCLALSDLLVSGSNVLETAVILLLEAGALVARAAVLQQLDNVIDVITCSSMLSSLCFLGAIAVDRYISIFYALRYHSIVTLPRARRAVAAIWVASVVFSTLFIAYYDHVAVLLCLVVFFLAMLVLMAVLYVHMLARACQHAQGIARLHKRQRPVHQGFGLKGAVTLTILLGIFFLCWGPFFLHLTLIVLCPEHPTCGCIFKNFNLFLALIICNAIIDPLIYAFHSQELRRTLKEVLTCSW
Method: FIG. 4A-B. (A) Pharmacological properties of exemplary MC4R agonist peptides, including those with improved efficacy in the MC4R+/− mouse (CTX-1211, CTX-1227, and CTX-1228). Concentration-response agonist curves for peptides indicated at the human MC4R (red), human MC3R (blue), human MC5R (green), and human MC1R (black) were determined by a split-luciferase cAMP sensor dynamic assay in HEK-293 cells stably expressing the hMC1R, hMC3R, hMC4R, or hMC5R and the GScAMP22F cAMP sensor. Each data point represents the mean±SEM of two experiments with three replicates each per experiment. Data is normalized to the ECmax of α-MSH. (B) Same as above, for peptides representing reduced activity at the hMC1R. Inset tables indicate EC50 values for the ligand indicated for each receptor.
The assay for the determination of the cAMP response in live cells was described previously. (Yu et al., 2020, Science 368, 428-433; incorporated by reference in its entirety). Cells were seeded at a density of 20,000 cells per well using 384-well poly-D lysine-coated, clear bottom, and black-wall assay plates (Corning Inc. Corning, NJ). Cells were allowed to attach to the plates for 18 to 24 h after which growth media was removed and 20 μl of 4% D-luciferin (Promega) in CO2 independent, serum-free medium (Thermo Fisher Scientific) was added to each well. The luciferase substrate was allowed to permeate the cells for 120 min at 37° C. Intracellular cAMP levels were measured using an FDSS 7000EX Functional Drug Screening System (Hamamatsu Photonics, Hamamatsu, Japan) in the Center for Chemical Genomics at the Life Sciences Institute. This instrument allowed the in-line addition of test-peptides and receptor agonists while simultaneously acquiring the luminescence signal from live cells. Assay read steps were set as follows: baseline acquisition of 2 min, the addition of 10 μl of varying 3× concentrations of test-peptides or vehicle followed by 11 min measurement (measurement window 1), and 10 μl addition of 4× concentration of the endogenous melanocortin agonist α-MSH (Bachem, Bubendorf, Switzerland) followed by an additional 11 min response measurement (measurement window 2). The resulting final concentration of α-MSH was close to the respective receptor EC90 dose for each receptor. Intraplate concentration response curves for α-MSH and SHU-9119 (Phoenix Pharmaceuticals, Burlingame CA) were included as reference controls. A submaximal forskolin (20 μM) concentration was also included to serve as a normalization reference to account for cell number variations and differences in assay transducer efficiency between cell lines.
With this set up it was possible to evaluate the direct effect of the test-peptides on the MC3R and MC4R cell lines during measurement window 1, while the antagonist profile in the presence of EC90 α-MSH was determined on measurement window 2. For data analysis baseline luminescence (i.e. the maximum luminescence signal from the initial 0 to 2 min window) was subtracted from the maximum luminescence obtained during measurement window 1 (2 to 13 min) and measurement window 2 (13 to 24 min) to yield the test-peptide elicited responses. EC50 or IC50 potency values were determined by non-linear regression by fitting the data to a sigmoid four-parameter variable slope model using the GraphPad Prism version 8.4 software package (San Diego CA).

SMILES	pEC50 (human MC3R)	MC4R selectivity vs MC3R (human MC3R)	Emax (human MC4R) [%]	MC4R selectivity vs MC1R (human MC1R)	Emax (human MC3R) [%]	pEC50 (human MC4R)
CC(=O)N[C@@H](CCCNC(=N)N)C(=O)N[C@H]1CSSC[C@@H](C(N)=O)NC(=O)[C@H](Cc2ccccc2)NC(=O)[C@H](CCCNC(=N)N)NC(=O)[C@@H](Cc2ccccc2)NC(=O)[C@H](Cc2cccnc2)NC(=O)C(C)(C)NC1=O [CTX-1605, Arg-cyclo(Cys-Aib-Pal(3′)-D-Phe-Arg-Phe-Cys)] (Ac-RC[Aib][3Pal][dF]RFC-NH2; disulfide 2-8 (inferred))	< 5.00	>300	85	0.14	–	–
CCCC[C@H](NC(=O)[C@H](CCCNC(=N)N)NC(C)=O)C(=O)N[C@H]1CSSC[C@@H](C(N)=O)NC(=O)[C@H](Cc2ccccc2)NC(=O)[C@H](CCCNC(=N)N)NC(=O)[C@@H](Cc2ccccc2)NC(=O)[C@H](CCCNC(N)=O)NC1=O [CTX-1626, Arg-Nle-cyclo(Cys-Cit-D-Phe-Arg-Phe-Cys)] (Ac-R[Nle]C[Cit][dF]RFC-NH2; disulfide 3-8 (inferred))	–	1.6	83	3.05	51	–
CC(=O)N[C@@H](CCCNC(=N)N)C(=O)N[C@H]1CSSC[C@@H](C(N)=O)NC(=O)[C@@H](Cc2c[nH]c3ccccc23)NC(=O)[C@H](CCCNC(=N)N)NC(=O)[C@@H](Cc2ccccc2)NC(=O)[C@H](CCCNC(N)=O)NC(=O)[C@@H](C)NC1=O [CTX-1286, Arg-cyclo(Cys-D-Ala-Cit-D-Phe-Arg-D-Trp-Cys)] (Ac-RC[dA][Cit][dF]R[dW]C-NH2; disulfide 2-8)	–	2.16	91	3.4	24	–
CCCC[C@H](NC(=O)[C@H](CCCNC(=N)N)NC(C)=O)C(=O)N[C@H]1CSSC[C@@H](C(N)=O)NC(=O)[C@H](Cc2c[nH]c3ccccc23)NC(=O)[C@H](CCCNC(=N)N)NC(=O)[C@@H](Cc2cccc3ccccc23)NC(=O)[C@H](CCCNC(=N)N)NC1=O [CTX-1611, Arg-Nle-cyclo(Cys-Arg-D-Nal(1′)-Arg-Trp-Cys)] (Ac-R[Nle]CR[d1Nal]RWC-NH2; disulfide 3-8 (inferred))	7.96	6.61	67	0.25	58	8.80
CCCC[C@H](NC(=O)[C@H](CCCNC(=N)N)NC(C)=O)C(=O)N[C@H]1CSSC[C@@H](C(N)=O)NC(=O)[C@H](Cc2ccccc2)NC(=O)[C@H](CCCNC(=N)N)NC(=O)[C@@H](Cc2ccc(OC)cc2)NC(=O)[C@H](CCCNC(=N)N)NC1=O [CTX-1624, Arg-Nle-cyclo(Cys-Arg-D-Tyr(4-OMe)-Arg-Phe-Cys)] (Ac-R[Nle]CR[dY](Me)RFC-NH2; disulfide 3-8 (inferred))	–	0.47	83	0.15	66	7.92
CC(=O)N[C@H]1CSSC[C@@H](C(N)=O)NC(=O)[C@H](Cc2c[nH]c3ccccc23)NC(=O)[C@H](CCCNC(=N)N)NC(=O)[C@@H](Cc2ccccc2)NC(=O)[C@H](Cc2c[nH]cn2)NC(=O)C(C)(C)NC1=O [CTX-1631, cyclo(Cys-Aib-His-D-Phe-Arg-Trp-Cys)]	–	6.91	107	4.09	100	–
COc1ccc(C[C@H]2NC(=O)[C@H](CCCNC(=N)N)NC(=O)C(C)(C)NC(=O)[C@@H](NC(=O)[C@H](CCCNC(=N)N)NC(C)=O)CSSC[C@@H](C(N)=O)NC(=O)[C@H](Cc3ccccc3)NC(=O)[C@H](CCCNC(=N)N)NC2=O)cc1 [CTX-1298, Arg-cyclo(Cys-Aib-Arg-D-Tyr(4-OMe)-Arg-Phe-Cys)] (Ac-RC[Aib]R[dY](Me)RFC-NH2; disulfide 2-8 (inferred))	< 5.00	0.93	93	0.12	–	8.48
CC(=O)N[C@H]1CSSC[C@@H](C(N)=O)NC(=O)[C@H](Cc2c[nH]c3ccccc23)NC(=O)[C@H](CCCNC(=N)N)NC(=O)[C@@H](Cc2ccccc2)NC(=O)[C@H](CCCNC(N)=O)NC(=O)C(C)(C)NC1=O [CTX-1633, cyclo(Cys-Aib-Cit-D-Phe-Arg-Trp-Cys)] (Ac-C[Aib][Cit][dF]RWC-NH2; disulfide 1-7 (inferred))	–	104	110	942	45	–
C[C@H]1NC(=O)CSC[C@@H](C(N)=O)NC(=O)[C@H](Cc2c[nH]c3ccccc23)N(C)C(=O)[C@H](CCCNC(=N)N)NC(=O)[C@@H](Cc2ccccc2)NC(=O)[C@H](Cc2c[nH]cn2)N(C)C1=O [CTX-1203, Thioether-cyclo(D-Ala-Nme-His-D-Phe-Arg-Nme-Trp-Cys)] ({CH2CO}-[dA][NMeH][dF]R[NMeW]C-NH2; thioether N-6)	–	161	109	2.32	107	7.80
CC(=O)N[C@@H](CCCNC(=N)N)C(=O)N[C@H]1CSSC[C@@H](C(N)=O)NC(=O)[C@H](Cc2c[nH]c3ccccc23)NC(=O)[C@H](CCCNC(=N)N)NC(=O)[C@@H](Cc2ccccc2)NC(=O)[C@H](CCCNC(N)=O)NC(=O)CNC1=O [CTX-1294, Arg-cyclo(Cys-Gly-Cit-D-Phe-Arg-Trp-Cys)] (Ac-RCG[Cit][dF]RWC-NH2; disulfide 2-8 (inferred))	–	11	102	111	33	–
C[C@H]1NC(=O)CSC[C@@H](C(N)=O)NC(=O)[C@H](Cc2c[nH]c3ccccc23)NC(=O)[C@H](CCCNC(=N)N)NC(=O)[C@@H](Cc2ccccc2)NC(=O)[C@H](CCCNC(=N)N)NC1=O [CTX-1642, Thioether-cyclo(D-Ala-Arg-D-Phe-Arg-Trp-Cys)] ({CH2CO}-[dA]R[dF]RWC-NH2; thioether N-6)	–	29	107	13	90	8.54
CC(=O)N[C@H]1CSSC[C@@H](C(N)=O)NC(=O)[C@H](Cc2c[nH]c3ccccc23)NC(=O)[C@H](CCCNC(=N)N)NC(=O)[C@@H](Cc2ccccc2)NC(=O)[C@H](CCCNC(=N)N)NC(=O)CNC1=O [CTX-1629, cyclo(Cys-Gly-Arg-D-Phe-Arg-Trp-Cys)] (Ac-CGR[dF]RWC-NH2; disulfide 1-7)	7.89	19	102	15	83	–
N=C(N)NCCC[C@@H]1NC(=O)CNC(=O)CSC[C@@H](C(N)=O)NC(=O)[C@H](Cc2c[nH]c3ccccc23)NC(=O)[C@H](CCCNC(=N)N)NC(=O)[C@@H](Cc2ccccc2)NC1=O [CTX-1645, Thioether-cyclo(Gly-Arg-D-Phe-Arg-Trp-Cys)] ({CH2CO}-GR[dF]RWC-NH2; thioether N-6)	7.17	42	110	9.04	97	8.80

From patent US20240391954A1, “MC4R AGONIST PEPTIDES” (The Regents of the University of Michigan, priority 2021, published 2024)
